# Experiments:
# hNTS1 = hNTS1 (Homo sapiens, UniProt P30989); assay: competitive radioligand binding, hNTS1; conditions: [^3H]NT; CHO
# Protocol: (§1) Affinities for NTS1 and NTS2 as well as for dopaminergic and serotonergic receptors were determined in competitive radioligand binding assays using appropriate radioligands as shown in Table 1.
# hNTS2 = hNTS2 (Homo sapiens, UniProt O95665); assay: competitive radioligand binding, hNTS2; conditions: [^3H]NT (8-13); HEK
# Protocol: as §1
# [1] = Stability in human plasma; assay type: in vitro ADME; conditions: 37° C., up to 7 days
# Protocol: An aliquot of ^177Lu-14 (FAUC Lu469) in PBS (50 μL) was added to human plasma (200 μL) and incubated at 37° C. Aliquots (25 μL) were taken at various time intervals (1 h, 4 h, 24 h, 96 h, 7 days) and quenched with acetonitrile/0.1% TFA (1:1, 100 μL). The samples were centrifuged, and the supernatants were analyzed by radio-HPLC.
# [2] = Determination of partition coefficient (log D7.4); assay type: physicochemical; conditions: 1-octanol/PBS pH 7.4, room temperature
# Protocol: The lipophilicity of ^177Lu-14 (FAUC Lu469) was assessed by determination of the water-octanol partition coefficient. 1-Octanol (0.5 mL) was added to a solution of approximately 25 kBq of ^177Lu-14 in PBS (0.5 mL, pH 7.4) and the layers were vigorously mixed for 3 min at room temperature. The tubes were centrifuged (14000 rpm, 1 min) and three samples of 100 μL of each layer were counted in a γ-counter (Wallac Wizard). The partition coefficient was determined by calculating the ratio cpm (octanol)/cpm (PBS) and expressed as log D74) log(cpmoctanol/cpmbuffer). The experiments were performed in triplicates. The log D7.4 value was determined to be −1.8±0.1 (mean value±standard deviation, n=6).
# [3] = Biodistribution in xenografted nude mice, normal tissue; assay type: in vivo, Athymic nude mice (nu/nu); conditions: i.v.
# Protocol: (§2) Athymic nude mice (nu/nu) were obtained from Harlan Winkelmann GmbH (Borchen, Germany) at 4 weeks of age and were kept under standard conditions (12 h light/dark) with food and water available ad libitum. AsPC-1, PC-3 or HT29 cells were harvested and suspended in sterile PBS at a concentration of 2×10^7 cells/ml. Viable cells (2×10^6) in PBS (100 μL) were injected subcutaneously in the back. Two weeks after inoculation (tumor weight: 400-800 mg), the mice (about 10-12 weeks old with about 40 g body weight) were used for biodistribution studies.
# (§3) The xenografted mice were injected with ^177Lu-14 (FAUC Lu469, 1 MBq/mouse) intravenously into the tail vein. The mice were sacrificed by cervical dislocation at 24 h and 48 h post-injection (p.i.). Tumors and other tissues (blood, lung, liver, kidneys, heart, brain, muscle and intestine) were removed and weighed. Radioactivity of the dissected tissues was determined using a γ-counter. Results were expressed as percentage of injected dose per gram of tissue (% ID/g), and tumor-to-organ ratios were calculated. Results are reported as percent injected dose per gram (% ID/g) in Table 2 and FIG. 1.
# HT29 = assay: Biodistribution in xenografted nude mice, HT29 tumor uptake; assay type: in vivo, Athymic nude mice (nu/nu); conditions: i.v.
# Protocol: as §2, §3
# PC3 = assay: Biodistribution in xenografted nude mice, PC3 tumor uptake; assay type: in vivo, Athymic nude mice (nu/nu); conditions: i.v.
# Protocol: as §2, §3
# AsPC1 = assay: Biodistribution in xenografted nude mice, AsPC1 tumor uptake; assay type: in vivo, Athymic nude mice (nu/nu); conditions: for Uptake AsPC1 tumor: i.v.
# Protocol: as §2
# The xenografted mice were injected with ^177Lu-14 (FAUC Lu469, 1 MBq/mouse) intravenously into the tail vein. […] Tumors and other tissues (blood, lung, liver, kidneys, heart, brain, muscle and intestine) were removed and weighed. Radioactivity of the dissected tissues was determined using a γ-counter. Results were expressed as percentage of injected dose per gram of tissue (% ID/g), and tumor-to-organ ratios were calculated. Results are reported as percent injected dose per gram (% ID/g) in Table 2 and FIG. 1.
# PC1-3 tumors = assay: Therapy study, PC1-3 tumors, single-dose administration; assay type: in vivo, Nude mice; conditions: single dose 30±9 MBq/animal
# Protocol: Nude mice bearing PC1-3 tumors at the back were used for the therapy study. One week after inoculation of the PC1-3 cells, ^177Lu-14 (FAUC Lu469) was injected in four mice at a dose of 30±9 MBq/animal. Eight additional animals were injected with saline as control animals. The body weight and the tumor diameter was measured every three days. […] The tumor inhibition growth factor was 64% after 49 days.
# [4] = test system: AsPC-1 tumors (human pancreas adenocarcinoma); assay: Therapy study, AsPC-1 tumors, single-dose and double-dose administration; assay type: in vivo, Nude mice
# Protocol: Nude mice bearing AsPC-1 tumors (human pancreas adenocarcinoma) at the back were used for the therapy study. One week after inoculation of the AsPC-1 cells, six mice were injected with a single dose of ^177Lu-14 (FAUC Lu469) (28±6 MBq/animal, group B, single-dose administration) at day 0 and another six animals were injected with a double-dose of ^177Lu-14 (FAUC Lu469) (2×29±4 MBq/animal, group C, double-dose administration), consisting of the first dose (29 MBq/animal) at the starting day of radiotherapy (day 0) and the second dose (29 MBq/animal) at day 10 after begin of treatment. Six additional animals were injected with saline as untreated control animals (group A). The body weight and the tumor diameter were measured five times a week.
# hD1 = hD1 (Homo sapiens, UniProt P21728); assay: competitive radioligand binding, hD1; conditions: [^3H] SCH 23990
# Sequence of hD1 (P21728 whole entry): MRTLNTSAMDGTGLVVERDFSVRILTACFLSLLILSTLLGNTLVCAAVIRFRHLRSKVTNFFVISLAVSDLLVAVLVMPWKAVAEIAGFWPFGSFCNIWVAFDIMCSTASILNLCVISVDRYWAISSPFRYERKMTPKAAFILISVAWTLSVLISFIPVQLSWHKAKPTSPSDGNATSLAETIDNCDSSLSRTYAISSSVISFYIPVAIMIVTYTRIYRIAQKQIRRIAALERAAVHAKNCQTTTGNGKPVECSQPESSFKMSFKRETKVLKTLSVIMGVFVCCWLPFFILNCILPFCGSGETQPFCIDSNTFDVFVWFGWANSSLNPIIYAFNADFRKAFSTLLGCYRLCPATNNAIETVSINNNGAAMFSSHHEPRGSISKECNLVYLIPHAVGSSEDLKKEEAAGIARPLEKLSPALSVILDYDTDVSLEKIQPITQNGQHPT
# Protocol: as §1
# hD5 = hD5 (Homo sapiens, UniProt P21918); assay: competitive radioligand binding, hD5; conditions: [^3H] SCH 23990
# Sequence of hD5 (P21918 whole entry): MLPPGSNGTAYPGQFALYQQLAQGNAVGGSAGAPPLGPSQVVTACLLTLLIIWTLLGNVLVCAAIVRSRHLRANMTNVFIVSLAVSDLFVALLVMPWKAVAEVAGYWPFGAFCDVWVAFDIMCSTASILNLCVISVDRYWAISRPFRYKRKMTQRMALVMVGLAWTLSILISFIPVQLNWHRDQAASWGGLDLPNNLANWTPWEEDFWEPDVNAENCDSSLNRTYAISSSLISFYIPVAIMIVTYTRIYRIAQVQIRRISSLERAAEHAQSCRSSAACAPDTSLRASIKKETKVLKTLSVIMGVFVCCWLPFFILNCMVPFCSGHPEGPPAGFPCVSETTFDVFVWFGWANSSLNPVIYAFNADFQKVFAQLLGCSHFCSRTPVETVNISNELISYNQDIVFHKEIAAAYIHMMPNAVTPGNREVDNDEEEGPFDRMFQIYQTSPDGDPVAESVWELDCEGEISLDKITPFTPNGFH
# Protocol: as §1
# hD2long = hD2long (Homo sapiens, UniProt P14416); assay: competitive radioligand binding, hD2long; conditions: [^3H] spiperone
# Sequence of hD2long (P14416 whole entry): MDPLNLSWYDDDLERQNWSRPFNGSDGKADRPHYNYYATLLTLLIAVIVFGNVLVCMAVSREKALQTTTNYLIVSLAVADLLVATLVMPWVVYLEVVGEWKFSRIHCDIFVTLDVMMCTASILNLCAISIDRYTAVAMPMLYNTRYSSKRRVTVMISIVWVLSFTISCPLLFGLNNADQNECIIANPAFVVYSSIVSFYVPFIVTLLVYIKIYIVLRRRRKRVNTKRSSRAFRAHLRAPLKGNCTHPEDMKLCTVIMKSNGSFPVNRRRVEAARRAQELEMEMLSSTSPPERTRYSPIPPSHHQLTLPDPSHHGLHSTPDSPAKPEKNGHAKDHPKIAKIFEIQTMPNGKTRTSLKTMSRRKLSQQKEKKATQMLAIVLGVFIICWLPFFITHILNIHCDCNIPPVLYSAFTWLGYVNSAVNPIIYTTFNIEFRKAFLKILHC
# Protocol: as §1
# hD2short = hD2short (Homo sapiens, UniProt P14416); assay: competitive radioligand binding, hD2short; conditions: [^3H] spiperone
# Sequence of hD2short (P14416 1-414 isoform P14416-2): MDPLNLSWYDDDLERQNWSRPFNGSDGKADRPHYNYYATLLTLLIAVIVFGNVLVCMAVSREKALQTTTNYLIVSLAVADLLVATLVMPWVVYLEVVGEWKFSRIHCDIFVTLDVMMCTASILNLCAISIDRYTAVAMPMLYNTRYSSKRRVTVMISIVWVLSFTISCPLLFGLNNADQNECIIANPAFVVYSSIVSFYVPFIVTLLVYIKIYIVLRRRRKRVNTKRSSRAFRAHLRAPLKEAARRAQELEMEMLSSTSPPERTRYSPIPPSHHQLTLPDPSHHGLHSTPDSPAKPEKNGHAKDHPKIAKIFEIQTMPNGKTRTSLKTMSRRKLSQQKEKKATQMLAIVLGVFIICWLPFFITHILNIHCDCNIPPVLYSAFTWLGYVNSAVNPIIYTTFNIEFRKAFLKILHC
# Protocol: as §1
# hD3 = hD3 (Homo sapiens, UniProt P35462); assay: competitive radioligand binding, hD3; conditions: [^3H] spiperone
# Sequence of hD3 (P35462 whole entry): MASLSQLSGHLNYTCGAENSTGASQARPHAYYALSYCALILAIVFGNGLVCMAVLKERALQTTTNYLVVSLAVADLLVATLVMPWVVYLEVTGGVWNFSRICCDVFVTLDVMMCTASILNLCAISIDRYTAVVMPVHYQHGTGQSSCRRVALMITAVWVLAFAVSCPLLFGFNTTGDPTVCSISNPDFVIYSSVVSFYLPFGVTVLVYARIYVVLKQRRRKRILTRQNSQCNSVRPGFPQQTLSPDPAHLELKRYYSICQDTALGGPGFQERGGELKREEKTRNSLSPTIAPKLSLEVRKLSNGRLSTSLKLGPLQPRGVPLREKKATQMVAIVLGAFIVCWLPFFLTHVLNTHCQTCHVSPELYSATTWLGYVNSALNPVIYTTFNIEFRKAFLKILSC
# Protocol: as §1
# hD4.4 = target: T1, hD4.4 (Homo sapiens, UniProt P21917); assay: competitive radioligand binding, hD4.4; conditions: [^3H] spiperone
# T1 sequence (P21917 1-419): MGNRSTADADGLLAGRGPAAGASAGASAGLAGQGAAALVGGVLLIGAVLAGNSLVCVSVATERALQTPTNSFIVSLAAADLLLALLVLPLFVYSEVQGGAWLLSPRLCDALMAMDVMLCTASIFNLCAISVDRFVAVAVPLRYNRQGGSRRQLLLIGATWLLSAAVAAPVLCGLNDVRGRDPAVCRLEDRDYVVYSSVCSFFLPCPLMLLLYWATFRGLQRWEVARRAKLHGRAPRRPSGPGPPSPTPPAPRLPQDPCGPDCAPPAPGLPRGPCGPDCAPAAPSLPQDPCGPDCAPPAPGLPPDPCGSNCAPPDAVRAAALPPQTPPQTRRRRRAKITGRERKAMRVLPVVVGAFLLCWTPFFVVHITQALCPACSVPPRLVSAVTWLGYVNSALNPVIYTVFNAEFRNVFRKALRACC
# Protocol: as §1
# p5-HT1A = target: T2, p5-HT1A (Sus scrofa, UniProt A0A4X1UTF5); assay: competitive radioligand binding, p5-HT1A; conditions: [^3H] WAY600135
# T2 sequence (A0A4X1UTF5 1-422): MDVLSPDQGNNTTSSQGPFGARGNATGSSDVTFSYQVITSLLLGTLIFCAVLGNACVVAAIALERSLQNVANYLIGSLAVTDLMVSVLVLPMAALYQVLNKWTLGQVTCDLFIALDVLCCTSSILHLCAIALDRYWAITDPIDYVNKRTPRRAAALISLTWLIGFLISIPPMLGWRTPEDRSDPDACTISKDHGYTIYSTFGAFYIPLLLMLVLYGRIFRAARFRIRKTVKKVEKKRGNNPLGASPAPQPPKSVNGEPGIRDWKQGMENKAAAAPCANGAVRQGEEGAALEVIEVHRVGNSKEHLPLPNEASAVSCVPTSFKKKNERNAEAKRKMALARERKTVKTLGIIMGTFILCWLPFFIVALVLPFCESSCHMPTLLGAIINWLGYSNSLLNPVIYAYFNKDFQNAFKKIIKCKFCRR
# Protocol: as §1
# h5-HT2 = h5-HT2 (Homo sapiens, UniProt P28223); assay: competitive radioligand binding, h5-HT2; conditions: [^3H] ketanserin
# Sequence of h5-HT2 (P28223 whole entry): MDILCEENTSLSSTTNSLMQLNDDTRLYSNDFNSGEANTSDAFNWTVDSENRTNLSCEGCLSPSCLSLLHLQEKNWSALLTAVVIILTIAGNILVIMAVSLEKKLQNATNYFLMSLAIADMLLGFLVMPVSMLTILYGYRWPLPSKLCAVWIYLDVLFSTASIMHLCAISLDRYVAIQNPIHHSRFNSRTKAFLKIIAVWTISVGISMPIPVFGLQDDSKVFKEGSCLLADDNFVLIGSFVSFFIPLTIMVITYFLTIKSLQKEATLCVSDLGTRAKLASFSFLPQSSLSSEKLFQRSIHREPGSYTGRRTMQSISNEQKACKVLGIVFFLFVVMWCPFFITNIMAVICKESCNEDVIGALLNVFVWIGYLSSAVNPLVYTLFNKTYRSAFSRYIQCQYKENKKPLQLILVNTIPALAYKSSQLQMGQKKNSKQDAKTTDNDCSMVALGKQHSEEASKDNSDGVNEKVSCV
# Protocol: as §1
# pα1 = assay: competitive radioligand binding, pα1; conditions: [^3H] prazosine
# Sequence of hNTS2 (O95665 whole entry): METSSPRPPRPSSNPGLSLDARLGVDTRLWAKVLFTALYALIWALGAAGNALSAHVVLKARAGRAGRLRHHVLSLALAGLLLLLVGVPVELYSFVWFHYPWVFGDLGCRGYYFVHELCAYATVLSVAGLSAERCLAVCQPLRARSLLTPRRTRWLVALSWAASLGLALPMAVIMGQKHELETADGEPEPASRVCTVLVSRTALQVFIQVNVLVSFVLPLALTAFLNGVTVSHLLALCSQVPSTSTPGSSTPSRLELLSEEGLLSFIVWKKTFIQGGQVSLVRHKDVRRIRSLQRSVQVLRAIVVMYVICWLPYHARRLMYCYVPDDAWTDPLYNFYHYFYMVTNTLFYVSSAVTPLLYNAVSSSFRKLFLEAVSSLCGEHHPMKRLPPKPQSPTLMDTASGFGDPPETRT
# Sequence of hNTS1 (P30989 whole entry): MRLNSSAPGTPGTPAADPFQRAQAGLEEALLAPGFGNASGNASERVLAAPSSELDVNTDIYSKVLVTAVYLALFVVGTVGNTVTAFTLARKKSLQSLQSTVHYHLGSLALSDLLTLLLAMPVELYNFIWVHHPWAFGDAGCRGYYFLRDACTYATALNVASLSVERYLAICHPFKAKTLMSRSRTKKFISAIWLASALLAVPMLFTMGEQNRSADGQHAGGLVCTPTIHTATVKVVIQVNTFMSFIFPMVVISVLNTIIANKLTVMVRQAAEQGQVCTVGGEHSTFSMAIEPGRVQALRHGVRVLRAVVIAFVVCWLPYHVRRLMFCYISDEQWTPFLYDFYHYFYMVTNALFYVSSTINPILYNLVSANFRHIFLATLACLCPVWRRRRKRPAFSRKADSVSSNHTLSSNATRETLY
smiles,measurement,setting,value
COc1cccc(OC)c1-c1cc(C(=O)NC2(C(=O)O)C3CC4CC(C3)CC2C4)nn1-c1ccc(-c2cn(CCCN(C)C[C@@H](O)CNC(=O)CN3CCN(CC(=O)[O-])CCN(CC(=O)[O-])CCN(CC(=O)[O-])CC3)nn2)cc1C(C)C.[Lu+3] (stereo partly drawn) [Compound 20],Ki,hNTS1,1.4 nM
same,Ki,hNTS2,27 nM
COc1cccc(OC)c1-c1cc(C(=O)NC2(C(=O)O)C3CC4CC(C3)CC2C4)nn1-c1ccc(-c2cn(CCCN(C)CCCNC(=O)CN3CCN4CCN5CCN(CC3)CC(=O)[O][177Lu]([O]C(=O)C4)[O]C(=O)C5)nn2)cc1C(C)C (stereo not drawn) [^177Lu-14],Stability in human plasma (degradation products by radio-HPLC),[1],No degradation products were observed
same,log D7.4,[2],−1.8±0.1
same,Uptake blood,[3]; 24 h p.i.,0.36 % ID/g
same,Uptake blood,[3]; 48 h p.i.,0.14 % ID/g
same,Uptake brain,[3]; 24 h p.i.,0.06 % ID/g
same,Uptake brain,[3]; 48 h p.i.,0.04 % ID/g
same,Uptake femur,[3]; 24 h p.i.,0.89 % ID/g
same,Uptake femur,[3]; 48 h p.i.,0.75 % ID/g
same,Uptake heart,[3]; 24 h p.i.,1.05 % ID/g
same,Uptake heart,[3]; 48 h p.i.,0.56 % ID/g
same,Uptake intestine,[3]; 24 h p.i.,1.40 % ID/g
same,Uptake intestine,[3]; 48 h p.i.,0.77 % ID/g
same,Uptake kidney,[3]; 24 h p.i.,4.54 % ID/g
same,Uptake kidney,[3]; 48 h p.i.,2.48 % ID/g
same,Uptake liver,[3]; 24 h p.i.,11.61 % ID/g
same,Uptake liver,[3]; 48 h p.i.,5.45 % ID/g
same,Uptake lung,[3]; 24 h p.i.,4.15 % ID/g
same,Uptake lung,[3]; 48 h p.i.,1.23 % ID/g
same,Uptake muscle,[3]; 24 h p.i.,0.29 % ID/g
same,Uptake muscle,[3]; 48 h p.i.,0.19 % ID/g
same,Uptake spleen,[3]; 24 h p.i.,2.40 % ID/g
same,Uptake spleen,[3]; 48 h p.i.,1.60 % ID/g
same,Uptake HT29 tumor,HT29; 24 h p.i.,18.64 % ID/g
same,Uptake HT29 tumor,HT29; 48 h p.i.,16.34 % ID/g
same,Uptake PC3 tumor,PC3; 24 h p.i.,15.57 % ID/g
same,Uptake PC3 tumor,PC3; 48 h p.i.,10.85 % ID/g
same,Uptake AsPC1 tumor,AsPC1; 24 h p.i.,22.36 % ID/g
same,Uptake AsPC1 tumor,AsPC1; 48 h p.i.,14.41 % ID/g
same,AsPC1-tumor retention,AsPC1; day 7 p.i.,13.2±2.1 % ID/g
same,tumor inhibition growth factor,PC1-3 tumors; after 49 days,64%
same,survival versus untreated control animals,PC1-3 tumors,significantly longer survival
same,tumor growth and tumor size versus untreated control animals,PC1-3 tumors,significantly inhibited tumor growth and a reduction in tumor size
same,longer survival than untreated control animals,"[4]; double-dose 2×29±4 MBq/animal (group C), day 0 and day 10",+209%
same,tumor growth and tumor size versus untreated control animals,"[4]; single dose 28±6 MBq/animal (group B), between day 11 and 21, adjusted p=0.049",significant tumor growth inhibition and a reduction in tumor size
COc1cccc(OC)c1-c1cc(C(=O)NC2(C(=O)O)C3CC4CC(C3)CC2C4)nn1-c1ccc(-c2cn(CCCN(C)CCCNC(=O)CN3CCN(CC(=O)O)CCN(CC(=O)O)CCN(CC(=O)O)CC3)nn2)cc1C(C)C (stereo not drawn) [Compound 13],Ki,hNTS1,1.9 nM
same,Ki,hNTS2,100 nM
COc1cccc(OC)c1-c1cc(C(=O)NC2(C(=O)O)C3CC4CC(C3)CC2C4)nn1-c1ccc(-c2cn(CCCN(C)C[C@@H](O)CNC(=O)CN3CCN(CC(=O)O)CCN(CC(=O)O)CCN(CC(=O)O)CC3)nn2)cc1C(C)C (stereo partly drawn) [Compound 19],Ki,hNTS1,1.6 nM
same,Ki,hNTS2,59 nM
COc1cccc(OC)c1-c1cc(C(=O)NC2(C(=O)O)C3CC4CC(C3)CC2C4)nn1-c1ccc(-c2cn(CCCN(C)CCCNC(=O)CN3CCN(CC(=O)[O-])CCN(CC(=O)[O-])CCN(CC(=O)[O-])CC3)nn2)cc1C(C)C.[Lu+3] (stereo not drawn) [Compound 14],Ki,hNTS1,0.19 nM
same,Ki,hNTS2,13 nM
same,Ki,hD1,> 50000 nM
same,Ki,hD5,> 50000 nM
same,Ki,hD2long,> 50000 nM
same,Ki,hD2short,> 50000 nM
same,Ki,hD3,> 50000 nM
same,Ki,hD4.4,> 50000 nM
same,Ki,p5-HT1A,> 50000 nM
same,Ki,h5-HT2,> 50000 nM
same,Ki,pα1,> 50000 nM

# From patent publication US11180511B2, “Diagnosis, treatment and prevention of neurotensin receptor-related conditions” (Friedrich-Alexander-Universitat Erlangen-Nurnberg, priority 2016, dated 2021)
